Like-named read-outs stand apart in the source and are kept apart here.
Columns and labels:
[1] = target: recombinant human SYK360-635 (Spleen Tyrosine Kinase) (Homo sapiens (Human), UniProt P43405); assay: SYK kinase assay (33P ATP incorporation into biotinylated peptide); assay type: biochemical; conditions: purified truncated SYK aa 360-635, 20 μM ATP; read-out: Syk_IC50
Experimental: Determination of IC50 of Spleen Tyrosine Kinase (SYK) Inhibition:
SYK kinase assay is a standard kinase assay adapted to a 96 well plate format. This assay is performed in 96-well format for IC50 determination with […] which represented 10 half log dilutions and a 40 μL reaction volume. The assay measures the incorporation of radiolabeled ^33P γATP into an N-terminally biotinylated peptide substrate, derived from naturally occurring phosphoacceptor consensus sequence (Biotin-11aa DY*E). Phosphorylated products were detected upon termination of reactions with EDTA and the addition of Streptavidin coated beads.
final concentration: 50 mM HEPES pH7.5
BSA: Bovine Serum Albumin Fraction V, fatty acid free (Roche Diagnostics GmbH, Cat. No. 9100221) diluted to a final concentration of 0.1%
Assay Dilution Buffer (ADB): 50 mM HEPES, 0.1 mM EGTA, 0.1 mM Na Vanadate, 0.1 mM β-glycerophosphate, 10 mM MgCl2, 1 mM DTT, 0.1% BSA, pH 7.5
Bead wash buffer: 10 g/L PBS (Phosphate buffered saline) with 2M NaCl+1% phosphoric acid.
DMSO and the mixture was incubated for 10 min at RT.
The kinase reaction was initiated by the addition of 10 μL 4× substrate cocktail containing the DYE peptide substrate [0 or 5 μM], ATP [20 μM] and ^33PγATP [2 μCi/rxn]. After incubation at 30° C. for 15 min, the reaction was terminated by the transfer of […] pf the reaction sample to a 96 well 0.65 μm Millipore MADVNOB membrane/plate containing 200 μL 5 mM EDTA and 20% Streptavidine coated beads in PBS.
The unbound radionucleotides were washed under vacuum with 3×250 μL 2M NaCl; 2×250 μL 2M NaCl+1% phosphoric acid; 1×250 μL H2O. After the last wash membrane/plates were transferred to an adaptor plate, heat dried for 15 min at 60° C., and 50 μL scintillation cocktail was added to each well and 4 h later the amount of radioactivity was counted in a top counter.

[2] = test system: CD69 up-regulation on B-cell lymphocytes (CD20+) stimulated with anti-human IgM; assay: B Cell CD69 Up-Regulation Assay in Human Whole Blood; assay type: cell-based; conditions: read-out: Human whole blood IC50
Experimental: B Cell CD69 Up-Regulation Assay in Human Whole Blood
Human Blood was collected from healthy volunteers into Vacutainers (BD Biosciences, San Jose, Calif.) containing sodium heparin. Test compound was suspended in DMSO and nine half-log serial dilutions were made. The concentration of […] in the assay was 0.5%. 100 μL whole blood was pre-incubated with compound for 30 min and then stimulated with goat F(ab′)2 anti-human IgM (50 μg/mL, Southern Biotech) for 20 h. At the end of the 20 hour incubation, samples were incubated with fluorochrome-conjugated antibodies, PE mouse anti-human CD20 and APC Mouse anti-human CD69 (BD Biosciences), for 30 minutes. Samples were then lysed with Lyse solution (BD) and washed with PBS containing 2% fetal bovine serum (FBS). Fluorescent signals were acquired on flow cytometer LSR II (BD) and data were analyzed by Flow Jo. The percentage of activated (CD69hi) B-cell lymphocytes (CD20+) were determined using un-stimulated (negative control) and stimulated (positive control) wells as reference guidelines. The percentage inhibition was calculated and an IC50 curve was constructed using GraphPad Prism software with sigmoidal curve fitting.

[3] = human whole blood, anti-IgM stimulation 20 h, CD69hi CD20+ B cells

| IC50 [1] [µM] | IC50 [2, 3] [µM] | Structure (SMILES) | IC50 ([2]; Homo sapiens, 20 h) [µM] |
| --- | --- | --- | --- |
| 0.135 | 6.02 | CC(C)(C)c1cccc(Nc2cc(NCC3(N)CC3)nnc2C(N)=O)n1 [Compound I-19, 6-((1-aminocyclopropyl)methylamino)-4-(6-tert-butylpyridin-2-ylamino)pyridazine-3-carboxamide] | – |
| – | 0.573 | CC(C)(C#N)c1cccc(Nc2cc(NCCN)nnc2C(N)=O)n1 [Compound I-21, 6-(2-aminoethylamino)-4-(6-(2-cyanopropan-2-yl)pyridin-2-ylamino)pyridazine-3-carboxamide] | – |
| – | 2.06 | CC(C)(O)c1cccc(Nc2cc(NCCN)nnc2C(N)=O)n1 [Compound I-23, 6-(2-aminoethylamino)-4-(6-(2-hydroxypropan-2-yl)pyridin-2-ylamino)pyridazine-3-carboxamide] | – |
| 3.98 | > 5 | Cc1cc(C)nc(Nc2cc(NCCN)nnc2C(N)=O)n1 [Compound I-24, 6-(2-aminoethylamino)-4-(4,6-dimethylpyrimidin-2-ylamino)pyridazine-3-carboxamide] | – |
| – | 0.052 | NCCNc1cc(Nc2cccc(C(F)(F)F)n2)c(C(N)=O)nn1 [Compound I-25, 6-(2-aminoethylamino)-4-(6-(trifluoromethyl)pyridin-2-ylamino)pyridazine-3-carboxamide] | – |
| – | 0.287 | Cc1ccc(Nc2cc(NCCN)nnc2C(N)=O)nc1N(C)C [Compound I-27, 6-(2-aminoethylamino)-4-(6-(dimethylamino)-5-methylpyridin-2-ylamino)pyridazine-3-carboxamide] | – |
| – | 0.358 | CC(C)(C)c1nccc(Nc2cc(NCCN)nnc2C(N)=O)n1 [Compound I-28, 6-(2-aminoethylamino)-4-(2-tert-butylpyrimidin-4-ylamino)pyridazine-3-carboxamide] | – |
| – | 1.8 | COC(C)(C)c1cccc(Nc2cc(NCCN)nnc2C(N)=O)n1 [Compound I-29, 6-(2-aminoethylamino)-4-(6-(2-methoxypropan-2-yl)pyridin-2-ylamino)pyridazine-3-carboxamide] | – |
| 0.0418 | 0.548 | Cc1cccc(Nc2cc(N[C@@H]3CCCC[C@@H]3N)ccc2C(N)=O)n1 [Compound I-30, 4-((1R,2S)-2-amino-cyclohexylamino)-2-(6-methyl-pyridin-2-ylamino)-benzamide] | – |
| 0.00925 | 1.5 | COc1nc(Nc2cc(NCCN)nnc2C(N)=O)ccc1C(C)C [Compound I-31, 6-(2-aminoethylamino)-4-(5-isopropyl-6-methoxypyridin-2-ylamino)pyridazine-3-carboxamide] | – |
| 0.0124 | 0.566 | CC(C)Oc1cccc(Nc2cc(NCCN)nnc2C(N)=O)n1 [Compound I-33, 6-(2-aminoethylamino)-4-(6-isopropoxypyridin-2-ylamino)pyridazine-3-carboxamide] | – |

Continued, compound first:

| Structure (SMILES) | IC50 [1] [µM] | IC50 [2, 3] [µM] | IC50 ([2]; Homo sapiens, 20 h) [µM] |
| --- | --- | --- | --- |
| Cc1cccc(Nc2cc(Oc3ccccc3)nnc2C(N)=O)n1 [Compound I-1, 4-(6-methylpyridin-2-ylamino)-6-phenoxypyridazine-3-carboxamide] | 1.32 | – | – |
| Cc1cccc(Nc2cc(Oc3cccc(C#N)c3)nnc2C(N)=O)n1 [Compound I-2, 6-(3-cyanophenoxy)-4-(6-methylpyridin-2-ylamino)pyridazine-3-carboxamide] | 0.965 | – | – |
| Cc1cccc(Nc2cc(Oc3cccc(C(C)(C)N)c3)nnc2C(N)=O)n1 [Compound I-3, 6-(3-(2-aminopropan-2-yl)phenoxy)-4-(6-methylpyridin-2-ylamino)pyridazine-3-carboxamide] | 2.24 | – | – |
| Cc1cccc(Nc2cc(Oc3cccnc3)nnc2C(N)=O)n1 [Compound I-5, 4-(6-methylpyridin-2-ylamino)-6-(pyridin-3-yloxy)pyridazine-3-carboxamide] | 1.5 | – | – |
| Cc1cccc(Nc2cc(Oc3ccccc3C#N)nnc2C(N)=O)n1 [Compound I-6, 6-(2-cyanophenoxy)-4-(6-methylpyridin-2-ylamino)pyridazine-3-carboxamide] | 0.385 | – | – |
| CCc1ccccc1Oc1cc(Nc2cccc(C)n2)c(C(N)=O)nn1 [Compound I-7, 6-(2-ethylphenoxy)-4-(6-methylpyridin-2-ylamino)pyridazine-3-carboxamide] | 0.473 | – | – |
| Cc1cccc(Nc2cc(Oc3ccccc3C)nnc2C(N)=O)n1 [Compound I-8, 4-(6-methylpyridin-2-ylamino)-6-(o-tolyloxy)pyridazine-3-carboxamide] | 0.373 | – | > 5 |
| Cc1cccc(Nc2cc(Oc3ccc(Cl)cc3C#N)nnc2C(N)=O)n1 [Compound I-9, 6-(4-chloro-2-cyanophenoxy)-4-(6-methylpyridin-2-ylamino)pyridazine-3-carboxamide] | 1.41 | – | – |
| Cc1cccc(Nc2cc(Oc3ccccc3C3CC3)nnc2C(N)=O)n1 [Compound I-10, 6-(2-cyclopropylphenoxy)-4-(6-methylpyridin-2-ylamino)pyridazine-3-carboxamide] | 2.18 | – | – |
| NC(=O)c1n[nH]c(=O)cc1Nc1cccc(C2CC2)n1 [Compound I-11, 4-(6-cyclopropyl-pyridin-2-ylamino)-6-oxo-1,6-dihydro-pyridazine-3-carboxylic acid amide] | 0.225 | > 5 | – |
| Cc1ccc(Nc2cc(OCCN)nnc2C(N)=O)nc1C [Compound I-13, 6-(2-aminoethoxy)-4-(5,6-dimethylpyridin-2-ylamino)pyridazine-3-carboxamide] | – | > 50 | – |
| Cc1cc(C)cc(Nc2cc(Cl)nnc2C(N)=O)c1 [Compound I-14, 6-chloro-4-(3,5-dimethylphenylamino)pyridazine-3-carboxamide] | 0.124 | > 50 | – |
| Cc1ccc(Nc2cc(NC(CN)CC(C)C)nnc2C(N)=O)nc1C(C)C (stereo not shown) [Compound I-15, 6-(1-aminomethyl-3-methyl-butylamino)-4-(6-isopropyl-5-methyl-pyridin-2-ylamino)-pyridazine-3-carboxylic acid amide] | 0.002 | 0.931 | – |
| CC(C)(C)c1cccc(Nc2cc(NCCN)nnc2C(N)=O)n1 [Compound I-16, 6-(2-aminoethylamino)-4-(6-tert-butylpyridin-2-ylamino)pyridazine-3-carboxamide] | 0.013 | 0.603 | – |
| Cc1cccc(Nc2nc(CCCN)ncc2C(N)=O)c1 [Compound I-22, 2-(3-amino-propyl)-4-m-tolylamino-pyrimidine-5-carboxylic acid amide] | 2.54 | > 5 | – |

— patent US10112928B2, “Inhibitors of SYK” (Hoffmann-La Roche Inc., priority 2012, dated 2018)
